Laboratory results: US11708373B2, “5-alkylquinazoline derivative, method of preparing the same, and method of using the same” (Hefei University of Technology, priority 2020, dated 2023)

Tested on: breast cancer cells (MCF)
Experiment: MCF test of breast cancer cells
Assay type: cell-based
From the text: Therefore, the compounds of the present application are expected to be useful in the treatment of various cancers, such as cervical cancer.

COC(=O)C1=NC2(Nc3ccc(C)cc31)C(=O)Nc1ccc(C)cc12 (stereo not shown) [Compound II]
ED50, inhibitory activity in the MCF test of breast cancer cells: < 10.0 µg/mL
